Data: patent US20100144779A1, “Marine Alkalod Makaluvamines and Derivatives Thereof” (THE UAB RESEARCH FOUNDATION, priority 2007, published 2010)

Legend:
Format in all cases: cell-based, human
[1] = tested on: E2F1; experiment: Protein expression, Western blot in MCF-7 cells; settings: 24 h (FIG. 4B)
Experimental: (§1) In FIG. 4A, MCF-7 cells were exposed to 1 μM concentration of the indicated compounds for 6 hours. Western blots were probed with antibodies specific for the proteins indicated. Numbers below each lane show densitometry readings for each lane as compared to control. In FIG. 4B, MCF-7 cells were exposed to the indicated concentration of compound 28 and incubated for 24 hours. Western blots were probed with antibodies specific for the proteins indicated.
(§2) To determine the disclosed compounds effect on protein expression in human breast cancer cells, cultured MCF-7 cells were exposed to various concentrations of the test compounds for 6 h (FIG. 4A) or 24 h (FIG. 4B). Cell lysates were fractionated with identical amounts of protein by SDS-PAGE and transferred to Bio-Rad trans-Blot nitrocellulose membranes (Bio-Rad Laboratories, Hercules, Calif.). The nitrocellulose membrane was incubated in blocking buffer (Tris-buffered saline containing 0.1% Tween 20 and 5% nonfat milk) for 1 h at room temperature, then with the appropriate primary antibody overnight at 4° C. or 2 h at room temperature with gentle shaking. Finally, the membrane was washed three times with the washing buffer (Tris-buffered saline containing 0.1% Tween 20) for 15 min, incubated with goat anti mouse/rabbit IgG-horseradish peroxidase-conjugated antibody (Bio-Rad) for 1 h at room temperature, and washed again (in triplicate). The protein of interest was detected by enhanced chemiluminescence reagents from PerkinElmer LAS, Inc (Boston, Mass.).

[2] = tested on: cleaved PARP; experiment: Protein expression, Western blot in MCF-7 cells; settings: 24 h (FIG. 4B)
Experimental: as §1, §2

[3] = tested on: cdc2; experiment: Protein expression, Western blot in MCF-7 cells; settings: 24 h (FIG. 4B)
Experimental: as §1, §2

[4] = tested on: cdc25c; experiment: Protein expression, Western blot in MCF-7 cells; settings: 24 h (FIG. 4B)
Experimental: as §1, §2

[5] = tested on: MCF7; experiment: Cell cycle progression (propidium iodide, flow cytometry); settings: 48 hr; for G1 / G2/M / S: MCF7
Experimental: To determination of the effects of the disclosed compounds on the cell cycle, 2-3×10^5 cells were exposed to the test compounds (0-5 μM) and incubated for 48 hr prior to analysis (Table 6). Cells were trypsinized, washed with PBS and fixed in 1.5 mL 95% ethanol at 4° C. overnight, followed by incubation with RNAse and staining with propidium iodide (Sigma). The DNA content was determined by flow cytometry.

O=C(O)C(F)(F)F.O=C1C(NCc2ccc(F)cc2)=CC2=NCCc3c[nH]c1c32 [Compound 28]
expression level of E2F1 [1]: decreased | expression of cleaved PARP [2]: increased expression | expression level of cdc2 [3]: decreased | expression level of cdc25c [4]: decreased | G1 ([5]; 0.1 μM): 75.10 | G2/M ([5]; 0.1 μM): 17.53 | S ([5]; 0.1 μM): 7.37 | G1 ([5]; 0.5 μM): 51.97 | G2/M ([5]; 0.5 μM): 20.17 | S ([5]; 0.5 μM): 27.86 | G1 ([5]; 1 μM): 53.96 | G2/M ([5]; 1 μM): 16.21 | S ([5]; 1 μM): 29.82 | cell cycle arrest ([5]; breast cancer (MCF-7), dose-dependent, 0-5 μM): cell cycle arrest in the S phase
